From patent US20230133958A1, “COMPOUNDS USEFUL IN MODULATING EGFR AND PI3K” (Mekanistic Therapeutics LLC, priority 2021, published 2023)

Legend:
DNA-PK = DNA-PK (Homo sapiens, UniProt P78527); assay: Z'-LYTE / Adapta biochemical kinase assay, DNA-PK; conditions: concentration of 100 nM/liter; read-out: Percent Inhibition of target enzymes, DNA-PK
From the text: (§1) The Z′-LYTE® biochemical assay employs a fluorescence-based, coupled-enzyme format and is based on the differential sensitivity of phosphorylated and non-phosphorylated peptides to proteolytic cleavage. The peptide substrate is labeled with two fluorophores—one at each end—that make up a FRET pair. In the primary reaction, the kinase transfers the gamma-phosphate of ATP to a single tyrosine, serine or threonine residue in a synthetic FRET-peptide. In the secondary reaction, a site-specific protease recognizes and cleaves non-phosphorylated FRET-peptides. Phosphorylation of FRET-peptides suppresses cleavage by the Development Reagent. Cleavage disrupts FRET between the donor (i.e., coumarin) and acceptor (i.e., fluorescein) fluorophores on the FRET-peptide, whereas uncleaved, phosphorylated FRET-peptides maintain FRET. A ratiometric method, which calculates the ratio (the Emission Ratio) of donor emission to acceptor emission after excitation of the donor fluorophore at 400 nm, is used to quantitate reaction progress.
(§2) A significant benefit of this ratiometric method for quantitating reaction progress is the elimination of well-to-well variations in FRET-peptide concentration and signal intensities. As a result, the assay yields very high Z′-factor values (>0.7) at a low percent phosphorylation.
(§3) Both cleaved and uncleaved FRET-peptides contribute to the fluorescence signals and therefore to the Emission Ratio. The extent of phosphorylation of the FRET-peptide can be calculated from the Emission Ratio. The Emission Ratio will remain low if the FRET-peptide is phosphorylated (i.e., no kinase inhibition) and will be high if the FRET-peptide is non-phosphorylated (i.e., kinase inhibition).
(§4) Enzyme: The ADAPTA universal kinase assay is a homogenous, fluorescent based immunoassay for the detection of ADP. In contrast to ATP depletion assays, the ADAPTA assay is extremely sensitive to ADP formation such that a majority of the signal change occurs in the first 10-20% conversion of ATP to ADP. This makes the ADAPTA universal kinase assay ideally suited for use with low activity kinases.
(§5) The principle of the ADAPTA universal kinase assay is outlined below. The assay itself can be divided into two phases: a kinase reaction phase, and an ADP detection phase. In the kinase reaction phase, all components required for the kinase reaction are added to the well, and the reaction is allowed to incubate for 60 minutes. After the reaction, a detection solution consisting of a europium labeled anti-ADP antibody, an Alexa Fluor® 647 labeled ADP tracer, and EDTA (to stop the kinase reaction) is added to the assay well. ADP formed by the kinase reaction (in the absence of an inhibitor) will displace the Alexa Fluor® 647 labeled ADP tracer from the antibody, resulting in a decrease in the TR-FRET signal. In the presence of an inhibitor, the amount of ADP formed by the kinase reaction is reduced, and the resulting intact antibody-tracer interaction results in a high TR-FRET signal.
(§6) Test Compounds: The Test Compounds are screened in 1% DMSO (final) in the well. For 10 point titrations, 3-fold serial dilutions are conducted from the starting concentration of the customer’s choosing.
(§7) Peptide/Kinase Mixtures: All Peptide/Kinase Mixtures are diluted to a 2X working concentration in the appropriate Kinase Buffer.
(§8) ATP Solution: All ATP Solutions are diluted to a 4X working concentration in Kinase Buffer (50 mM HEPES pH 7.5, 0.01% BRIJ-35, 10 mM MgCl2,1 mM EGTA). ATP Km apparent is previously determined using a Z′-LYTE® assay.
(§9) Development Reagent Solution: The Development Reagent is diluted in Development Buffer.
(§10) Assay Protocol: Bar-coded Corning, low volume NBS, black 384-wellplate (Corning Cat. #4514) 1. 2.5 µL - 4X Test Compound or 100 nL 100X plus 2.4 µL kinase buffer. 2. 5 µL - 2X Peptide/Kinase Mixture. 3. 2.5 µL - 4X ATP Solution. 4. 30-second plate shake. 5. 60-minute Kinase Reaction incubation at room temperature. 6. 5 µL - Development Reagent Solution. 7. […]

PI3Kα = PI3Kα (Homo sapiens, UniProt P42336); assay: Z'-LYTE / Adapta biochemical kinase assay, PI3Kα; conditions: concentration of 100 nM/liter; read-out: Percent Inhibition of target enzymes, PI3K A
From the text: as §1, §2, §3, §4, §5, §6, §7, §8, §9, §10

EGFR = EGFR (Homo sapiens, UniProt P00533); assay: Z'-LYTE / Adapta biochemical kinase assay, EGFR; conditions: concentration of 100 nM/liter; read-out: Percent Inhibition of target enzymes, EGFR
From the text: as §1, §2, §3, §4, §5, §6, §7, §8, §9, §10

Chain of EGFR (P00533 25-1210): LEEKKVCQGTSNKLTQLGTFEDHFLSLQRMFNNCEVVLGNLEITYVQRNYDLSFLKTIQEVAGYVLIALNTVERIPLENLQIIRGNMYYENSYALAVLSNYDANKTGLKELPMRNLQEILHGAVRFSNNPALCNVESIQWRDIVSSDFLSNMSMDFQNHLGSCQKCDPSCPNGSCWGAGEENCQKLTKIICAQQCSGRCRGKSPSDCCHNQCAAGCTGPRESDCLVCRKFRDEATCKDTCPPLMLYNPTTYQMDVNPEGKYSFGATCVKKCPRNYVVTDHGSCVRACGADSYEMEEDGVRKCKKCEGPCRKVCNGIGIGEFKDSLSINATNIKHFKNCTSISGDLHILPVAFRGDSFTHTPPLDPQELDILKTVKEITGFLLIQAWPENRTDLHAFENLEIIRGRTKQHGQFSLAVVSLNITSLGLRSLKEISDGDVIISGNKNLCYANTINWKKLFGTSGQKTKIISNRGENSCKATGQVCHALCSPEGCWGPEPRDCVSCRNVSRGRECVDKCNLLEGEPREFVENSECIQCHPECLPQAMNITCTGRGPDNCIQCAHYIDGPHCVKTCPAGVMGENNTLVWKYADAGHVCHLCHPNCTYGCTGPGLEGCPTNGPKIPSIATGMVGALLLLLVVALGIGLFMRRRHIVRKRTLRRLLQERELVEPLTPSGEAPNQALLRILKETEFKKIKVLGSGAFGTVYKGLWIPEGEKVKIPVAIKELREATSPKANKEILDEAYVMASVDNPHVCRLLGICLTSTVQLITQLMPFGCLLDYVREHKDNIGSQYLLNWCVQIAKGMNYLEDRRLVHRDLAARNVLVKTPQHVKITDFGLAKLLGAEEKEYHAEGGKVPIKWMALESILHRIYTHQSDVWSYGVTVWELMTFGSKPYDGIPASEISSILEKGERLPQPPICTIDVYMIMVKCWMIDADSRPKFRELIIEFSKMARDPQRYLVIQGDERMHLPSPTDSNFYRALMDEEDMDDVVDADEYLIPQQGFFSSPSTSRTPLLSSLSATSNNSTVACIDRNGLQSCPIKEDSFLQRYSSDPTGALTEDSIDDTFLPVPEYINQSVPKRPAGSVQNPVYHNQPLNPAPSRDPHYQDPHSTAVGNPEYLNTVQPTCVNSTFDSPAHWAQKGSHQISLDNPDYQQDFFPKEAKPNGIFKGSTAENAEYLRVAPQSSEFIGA
Chain of PI3Kα (P42336 whole entry): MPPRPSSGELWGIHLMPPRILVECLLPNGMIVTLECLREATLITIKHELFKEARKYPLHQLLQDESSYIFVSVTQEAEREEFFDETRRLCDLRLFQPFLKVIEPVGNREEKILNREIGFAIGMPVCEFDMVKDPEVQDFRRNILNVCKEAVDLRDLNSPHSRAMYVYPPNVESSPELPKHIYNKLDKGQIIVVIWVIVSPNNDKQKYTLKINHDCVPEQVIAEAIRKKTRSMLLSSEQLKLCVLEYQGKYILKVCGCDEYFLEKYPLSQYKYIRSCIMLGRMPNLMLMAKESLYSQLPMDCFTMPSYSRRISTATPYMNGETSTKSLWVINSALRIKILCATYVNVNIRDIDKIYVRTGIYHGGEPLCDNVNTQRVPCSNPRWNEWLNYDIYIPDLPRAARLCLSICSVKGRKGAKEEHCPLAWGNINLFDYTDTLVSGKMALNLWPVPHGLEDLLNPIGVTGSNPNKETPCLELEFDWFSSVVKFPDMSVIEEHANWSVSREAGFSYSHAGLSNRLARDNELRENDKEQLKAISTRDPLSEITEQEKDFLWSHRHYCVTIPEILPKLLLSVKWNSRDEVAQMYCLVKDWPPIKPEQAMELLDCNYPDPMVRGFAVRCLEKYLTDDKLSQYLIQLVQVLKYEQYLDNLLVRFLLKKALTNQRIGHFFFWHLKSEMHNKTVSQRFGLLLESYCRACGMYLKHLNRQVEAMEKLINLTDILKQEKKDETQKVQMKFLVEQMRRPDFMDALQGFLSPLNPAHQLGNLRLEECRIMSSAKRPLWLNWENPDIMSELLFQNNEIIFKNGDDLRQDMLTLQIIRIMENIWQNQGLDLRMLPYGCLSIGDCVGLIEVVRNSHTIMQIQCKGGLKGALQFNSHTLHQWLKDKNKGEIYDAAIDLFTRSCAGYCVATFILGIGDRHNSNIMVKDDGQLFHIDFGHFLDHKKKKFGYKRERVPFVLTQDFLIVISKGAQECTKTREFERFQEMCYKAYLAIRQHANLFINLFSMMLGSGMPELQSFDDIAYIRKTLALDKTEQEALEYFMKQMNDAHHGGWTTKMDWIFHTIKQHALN
Chain of PI3Kα (P27986 whole entry partner): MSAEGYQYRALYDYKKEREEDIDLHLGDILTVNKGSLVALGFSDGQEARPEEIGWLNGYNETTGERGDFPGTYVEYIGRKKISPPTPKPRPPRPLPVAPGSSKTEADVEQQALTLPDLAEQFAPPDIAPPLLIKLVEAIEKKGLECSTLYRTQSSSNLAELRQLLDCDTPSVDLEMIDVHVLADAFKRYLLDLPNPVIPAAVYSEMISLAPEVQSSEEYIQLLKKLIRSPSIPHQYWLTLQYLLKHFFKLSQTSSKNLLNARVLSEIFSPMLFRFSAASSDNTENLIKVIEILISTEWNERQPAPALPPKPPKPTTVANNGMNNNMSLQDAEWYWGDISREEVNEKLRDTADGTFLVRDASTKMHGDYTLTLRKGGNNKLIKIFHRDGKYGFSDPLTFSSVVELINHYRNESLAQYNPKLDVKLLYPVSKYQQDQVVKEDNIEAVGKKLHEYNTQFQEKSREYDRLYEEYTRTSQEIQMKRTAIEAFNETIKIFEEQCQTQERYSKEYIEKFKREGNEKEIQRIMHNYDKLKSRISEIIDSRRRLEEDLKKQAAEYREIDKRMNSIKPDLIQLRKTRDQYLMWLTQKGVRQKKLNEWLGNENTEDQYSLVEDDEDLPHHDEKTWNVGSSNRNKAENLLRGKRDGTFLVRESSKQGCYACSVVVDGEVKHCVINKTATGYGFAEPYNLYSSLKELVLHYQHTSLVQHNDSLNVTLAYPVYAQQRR

SMILES	inhibition at 0.1 µM (DNA-PK) [%]	inhibition at 0.1 µM (PI3Kα) [%]	inhibition at 0.1 µM (EGFR) [%]
Cc1ncc(-c2ccc3ncnc(Nc4cccc(Cl)c4F)c3c2)cc1NS(C)(=O)=O [Compound 1, N-[5-[4-(3-chloro-2-fluoro-anilino)quinazolin-6-yl]-2-methyl-3-pyridyl] methanesulfonamide]	> 90	80 to 90	> 90
COc1ncc(-c2ccc3ncnc(Nc4cccc(Cl)c4F)c3c2)cc1NS(C)(=O)=O [Compound 2, N-[5-[4-(3-chloro-2-fluoro-anilino)quinazolin-6-yl]-2-methoxy-3-pyridyl] methanesulfonamide]	80 to 90	> 90	> 90
CS(=O)(=O)Nc1cncc(-c2ccc3ncnc(Nc4cccc(Cl)c4F)c3c2)c1 [Compound 3, N-[5-[4-(3-chloro-2-fluoro-anilino)quinazolin-6-yl]-3-pyridyl] methanesulfonamide]	80 to 90	10 to 80	> 90
